In patent publication US20230172867A1, “A METHOD FOR TREATING CANCER WITH AN ORAL DOSAGE FORM OF AN FGFR4 INHIBITOR” (Eisai R&D Management Co., Ltd., priority 2020, published 2023):
“And” between values parts separate entries of the source, which are not always exact repeats. Equal entries are not always repeated.

System: patients with HCC
Assay: Tumor response / efficacy in patients with HCC (RECIST 1.1/modified RECIST), trial NCT02834780
Assay type: in vivo, human
Settings: for Clinical Benefit Rate (CBR)(CR+PR+Durable SD): durable SD = stable disease ≥ 17 weeks; for clinical benefit rate / confirmed ORR: 55 HCC patients with ≥ 2 prior lines of therapy; for clinical benefit rate (complete response + partial response + durable stable disease) / confirmed overall response rate (ORR): 90 patients with HCC; for median OS / median PFS: HCC patients with ≥ 2 prior lines of therapy; for median overall survival (OS) / median progression-free survival (PFS): all HCC patients
Source text: A description of the first in human clinical trial for H3B-6527 can be found at the ClinicalTrials.gov by searching for trial identifier NCT02834780. In summary, the trial included a study population having the following characteristics: Adult patients ≥18 years old with advanced HCC or ICC; Progression after at least one prior therapy; ECOG score of 0 or 1; Well compensated liver function; FGF19-positive (dose expansion phase only); Excluded if patients have significant active infections [except hepatitis B virus (HBV) and hepatitis C virus (HCV)], gastric or esophageal varices, or previous FGF19-FGFR4 targeted therapy.
Drug Administration and Dosage for Dose Escalation: H3B-6527 was administered orally QD or BID on a 21-day cycle. Dose escalation followed a standard 3+3 cohort design with the dose cohorts of 300, 600, 1000, and 1400 mg QD fasting or 500 and 700 mg BID fed. Patients in dose escalation phase were treated regardless of FGF19 status. Response determined by RECIST 1.1/modified RECIST every 6 weeks

[1] = Expansion 1000 mg QD Fasted (N=10)

C=CC(=O)Nc1cc(N2CCN(CC)CC2)ccc1Nc1cc(N(C)C(=O)Nc2c(Cl)c(OC)cc(OC)c2Cl)ncn1 [H3B-6527, N-(2-((6-(3-(2,6-dichloro-3,5-dimethoxyphenyl)-1-methylureido)pyrimidin-4-yl)amino)-5-(4-ethylpiperazin-1-yl)phenyl)acrylamide]
Best Overall Response: Complete Response (CR) (300 mg QD Fasted (N=3)): 0 (0.0) n (%)
Best Overall Response: Not Evaluable (300 mg QD Fasted (N=3)): 0 (0.0) n (%)
Best Overall Response: Partial Response (PR) (300 mg QD Fasted (N=3)): 0 (0.0) n (%)
Best Overall Response: Progressive Disease (PD) (300 mg QD Fasted (N=3)): 0 (0.0) n (%)
Best Overall Response: Unknown (300 mg QD Fasted (N=3)): 0 (0.0) n (%)
Objective Response Rate (CR+PR) (300 mg QD Fasted (N=3)): 0 (0.0) n (%)
Clinical Benefit Rate (CBR)(CR+PR+Durable SD) (300 mg QD Fasted (N=3)): 1 (33.3) n (%)
Best Overall Response: Complete Response (CR) (600 mg QD Fasted (N=3)): 0 (0.0) n (%)
Best Overall Response: Not Evaluable (600 mg QD Fasted (N=3)): 0 (0.0) n (%)
Best Overall Response: Partial Response (PR) (600 mg QD Fasted (N=3)): 0 (0.0) n (%)
Best Overall Response: Progressive Disease (PD) (600 mg QD Fasted (N=3)): 1 (33.3) n (%)
Best Overall Response: Unknown (600 mg QD Fasted (N=3)): 0 (0.0) n (%)
Objective Response Rate (CR+PR) (600 mg QD Fasted (N=3)): 0 (0.0) n (%)
Clinical Benefit Rate (CBR)(CR+PR+Durable SD) (600 mg QD Fasted (N=3)): 2 (66.7) n (%)
Best Overall Response: Complete Response (CR) (1000 mg QD Fasted (N=7)): 0 (0.0) n (%)
Best Overall Response: Not Evaluable (1000 mg QD Fasted (N=7)): 0 (0.0) n (%)
Best Overall Response: Partial Response (PR) (1000 mg QD Fasted (N=7)): 1 (14.3) n (%)
Best Overall Response: Progressive Disease (PD) (1000 mg QD Fasted (N=7)): 0 (0.0) n (%)
Best Overall Response: Unknown (1000 mg QD Fasted (N=7)): 0 (0.0) n (%)
Objective Response Rate (CR+PR) (1000 mg QD Fasted (N=7)): 1 (14.3) n (%)
Clinical Benefit Rate (CBR)(CR+PR+Durable SD) (1000 mg QD Fasted (N=7)): 5 (71.4) n (%)
Best Overall Response: Complete Response (CR) (1400 mg QD Fasted (N=4)): 0 (0.0) n (%)
Best Overall Response: Not Evaluable (1400 mg QD Fasted (N=4)): 0 (0.0) n (%)
Best Overall Response: Partial Response (PR) (1400 mg QD Fasted (N=4)): 1 (25.0) n (%)
Best Overall Response: Progressive Disease (PD) (1400 mg QD Fasted (N=4)): 0 (0.0) n (%)
Best Overall Response: Unknown (1400 mg QD Fasted (N=4)): 0 (0.0) n (%)
Objective Response Rate (CR+PR) (1400 mg QD Fasted (N=4)): 1 (25.0) n (%)
Clinical Benefit Rate (CBR)(CR+PR+Durable SD) (1400 mg QD Fasted (N=4)): 3 (75.0) n (%)
clinical benefit rate (BID group): 25.8%
confirmed ORR (BID group): 0%
clinical benefit rate (complete response + partial response + durable stable disease) (BID group): 38%
confirmed overall response rate (ORR) (BID group): 0%
median OS (BID group): 7.3 months
median PFS (BID group): 2.8 months
median overall survival (OS) (BID group): 8.0 months
median progression-free survival (PFS) (BID group): 3.4 months
Best Overall Response: Complete Response (CR) [1]: 0 (0.0) n (%)
Best Overall Response: Not Evaluable [1]: 0 (0.0) n (%)
Best Overall Response: Partial Response (PR) [1]: 0 (0.0) n (%)
Best Overall Response: Progressive Disease (PD) [1]: 1 (10.0) n (%)
Best Overall Response: Unknown [1]: 3 (30.0) n (%)
Objective Response Rate (CR+PR) [1]: 0 (0.0) n (%)
Clinical Benefit Rate (CBR)(CR+PR+Durable SD) [1]: 2 (20.0) n (%)
clinical benefit rate (QD group): 45.8%
confirmed ORR (QD group): 12.5%
clinical benefit rate (complete response + partial response + durable stable disease) (QD group): 52%
confirmed overall response rate (ORR) (QD group): 8.3%
median OS (QD group): 10.6 months
median PFS (QD group): 4.1 months
median overall survival (OS) (QD group): 11.1 months
median progression-free survival (PFS) (QD group): 4.1 months
Best Overall Response: Complete Response (CR) (Total (N=27), QD fasted): 0 (0.0) n (%)
Best Overall Response: Not Evaluable (Total (N=27), QD fasted): 0 (0.0) n (%)
Best Overall Response: Partial Response (PR) (Total (N=27), QD fasted): 2 (7.4%) n (%) and 2 (7.4) n (%)
Best Overall Response: Progressive Disease (PD) (Total (N=27), QD fasted): 2 (7.4) n (%)
Best Overall Response: Unknown (Total (N=27), QD fasted): 3 (11.1) n (%)
Objective Response Rate (CR+PR) (Total (N=27), QD fasted): 2 (7.4) n (%)
Clinical Benefit Rate (CBR)(CR+PR+Durable SD) (Total (N=27), QD fasted): 13 (48.1) n (%)
